The results in this text go back to article PMC6788984, “High-potency ligands for DREADD imaging and activation in rodents and monkeys” (Nature Communications, 2019).

Series [1] deals with untransfected HEK-293 cells. Description: Negative controls of the functional assays: HEK-293 cells without DREADD. The series is classed as cell-based, human.
For series [2], the target named is T1, P-gp (Homo sapiens, UniProt P08183).
T1 construct: host or cells: Caco-2
As to the kind of experiment: P-glycoprotein (P-gp) substrate assay in Caco-2 cells with and without verapamil. It counts as in vitro ADME. The settings on record: Caco-2, efflux ratio with/without verapamil. The procedure: These experiments were performed by an outside vendor (Eurofins, France). C21 was tested in P-gp substrate assessment assays at 10 µM. The A to B and B to A permeability was measured in Caco-2 cells in the presence and absence of verapamil, a P-gp inhibitor. Efflux ratios (E) were calculated based on the apparent B–A and A–B permeability with and without verapamil. In each experiment, the respective reference compound was tested concurrently with the test compound to assess the assay reliability. Fluorescein was used as the cell monolayer integrity marker. Fluorescein permeability assessment (in the A–B direction at pH 7.4 on both sides) was performed after the permeability assay for the test compound.
A general note: Caco-2 cells form a polarised layer with tight junctions and transporters.

The target in series [3] is T2, hM3Dq (Homo sapiens, UniProt P20309, A239G/Y149C). The settings on record: D1-hM3Dq mice, 0.01 to 1 mg kg-1.
Description: (§1) Wild-type mice (C57BL/6J) were ordered from Jackson Laboratories and rats (Sprague–Dawley) were ordered from Charles River. Rodents were male and ordered at ~6 weeks of age. Transgenic mice were bred at NIDA breeding facility. […] Three male rhesus monkeys (Macaca mulatta) weighed 8–12 kg. All experiments and procedures complied with all relevant ethical regulations for animal testing and research and followed NIH guidelines and were approved by each institute’s animal care and use committees.
(§2) Ten minutes after injection, animals were placed in an open field arena (Opto-varimex ATM3, Columbus Instruments) and their locomotor activity was tracked during 60 min as infrared beam crossings and traveled distance was converted to cm. Animals were repeatedly tested on consecutive sessions (after an initial habituation session with no drug treatment) in a counterbalanced design.
Series [4] deals with WT mice. As to the kind of experiment: Locomotor activity in WT mice. As to conditions: WT mice.
Description: as §1, §2
Series [5] concerns the target T3, hM4Di (Homo sapiens, UniProt P08173, A203G/Y113C).
T3 sequence (P08173 1-479 Y113C/A203G): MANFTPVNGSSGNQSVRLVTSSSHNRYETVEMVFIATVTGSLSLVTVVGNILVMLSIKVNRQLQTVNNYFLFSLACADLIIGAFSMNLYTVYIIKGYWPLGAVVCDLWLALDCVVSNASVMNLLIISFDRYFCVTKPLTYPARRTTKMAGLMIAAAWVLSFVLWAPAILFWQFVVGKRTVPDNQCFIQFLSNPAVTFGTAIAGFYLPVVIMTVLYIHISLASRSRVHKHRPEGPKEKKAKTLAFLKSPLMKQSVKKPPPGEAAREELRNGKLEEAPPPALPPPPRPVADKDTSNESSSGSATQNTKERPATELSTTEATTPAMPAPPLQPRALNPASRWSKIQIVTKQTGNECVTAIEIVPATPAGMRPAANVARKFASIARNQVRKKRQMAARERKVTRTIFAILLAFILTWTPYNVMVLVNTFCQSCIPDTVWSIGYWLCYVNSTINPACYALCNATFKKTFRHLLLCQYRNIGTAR
As to the kind of experiment: Locomotor activity in D1-hM4Di mice.
Description: as §1, §2

For series [6], the system named is striatal DREADDs. Description: [11C]clozapine PET DREADD occupancy in AAV-DREADD mice. The settings on record: 0.1 mg kg-1 IP.
Protocol: Animals were anesthetized with isoflurane or a mix of ketamine/xylazine and prepped on a stereotaxic apparatus (Kopf, Germany). […] When indicated, animals were pretreated with vehicle or the indicated drug 10 min before the injection of the PET radiotracer. Total acquisition time was 60 min.
In all cases, the PET data were reconstructed and corrected for dead-time and radioactive decay. All qualitative and quantitative assessments of PET images were performed using the PMOD software environment (PMOD Technologies, Zurich Switzerland). Binding potential BPND (a relative measure of specific binding) was calculated using a reference tissue model using the cerebellum as a reference tissue in rodents. In macaques, the kinetic data were fitted to a two-tissue compartment model and the concentration of parent in plasma was used as an input function, then the volume of distribution ratios compared to cerebellum were calculated to establish BPND. In all cases, the dynamic PET images were coregistered to MRI templates and time-activity curves were generated using predefined volumes of interest (macaques) or manually drawn in rodents and the described analyses were performed. Receptor occupancy was calculated using the formula: occupancy = (BPND^0 − BPND^Drug)/BPND^0 × 100, where BPND^0 is the binding potential of the baseline condition and BPND^Drug the binding potential when the animals were pretreated with the drug.
Series [7] deals with T3, hM4Di. As to the kind of experiment: [3H]clozapine competition binding, membranes of HEK-293 cells expressing hM4Di.
Protocol: Cells were routinely tested for myclopasma contamination (MycoAlert® Mycoplasma Detection Kit, Lonza). Cells were seeded on 60 cm^2 dishes at 4 × 10^6 cells/dish 24 h before transfection. The indicated amount of cDNA was transfected into HEK-293 cells using polyethylenimine (PEI; Sigma-Aldrich) in a 1–2 DNA:PEI ratio. Cell harvesting for radioligand binding experiments or signaling assays were performed approximately 48 h after transfection.
Cells were suspended in Tris-HCl 50 mM pH 7.4 supplemented with protease inhibitor cocktail (1:100, Sigma-Aldrich, St. Louis, MO, USA). The dissected brain tissue was diluted in Tris-HCl 50 mM buffer supplemented with protease inhibitor cocktail (1:1000). HEK-293 cells or brain tissue were disrupted with a Polytron homogenizer (Kinematica, Basel, Switzerland). Homogenates were centrifuged at 48,000g (50 min, 4 °C) and washed twice in the same conditions to isolate the membrane fraction. Protein was quantified by the bicinchoninic acid method (Pierce). […] In all cases, free and membrane-bound radioligand were separated by rapid filtration of 500-μl aliquots in a 96-well plate harvester (Brandel, Gaithersburg, MD, USA) and washed with 2 ml of ice-cold Tris-HCl buffer. […] One-site competition curves were fitted using Prism 7 (GraphPad Software, La Jolla, CA, USA). Ki values were calculated using the Cheng–Prusoff equation.
Series [8] has as its target T2, hM3Dq. As to the kind of experiment: Locomotor activity in TH-hM3Dq rats. The series is classed as in vivo, rat. Further details: host or cells: TH-expressing neurons of the ventral tegmental area in TH:Cre rats (AAV transduction, in vivo). As to conditions: for Locomotor activity, individual animals (Figure 3 Panel G): listed as J60. The procedure:
Tyrosine hydroxylase (TH):Cre rats (n = 9; founder, K. Deisseroth lab) or WT littermates (n = 9) were bilaterally injected with AAV2 hSyn-DIO-hM3Dq-mCherry (1ul/hemisphere, Addgene), and allowed to recover for 2 + weeks. […] Vehicle was administered on 2 separate days, and average locomotion was used for comparison with DREADD agonists. Cohort 2 underwent the same procedures, but with a 4 h testing session, and the following IP injections: vehicle (x2), JHU37152 (0.01–0.3 mg kg^−1), JHU37160 (0.01–0.3 mg kg^−1). All drugs were dissolved in 5% DMSO in saline, and injected 1 ml kg^−1.

Each structure is given as a SMILES string. Values joined by “and” are separate entries in the source; they are usually repeats but may differ in a detail not shown here. Equal entries are not always repeated. “Also recorded” adds a separate entry of the source.

As usually defined, the Ki is the dissociation constant of the complex between target and ligand, obtained from inhibition or displacement. Read a low Ki as tighter binding.

T2 sequence (P20309 whole entry Y149C/A239G): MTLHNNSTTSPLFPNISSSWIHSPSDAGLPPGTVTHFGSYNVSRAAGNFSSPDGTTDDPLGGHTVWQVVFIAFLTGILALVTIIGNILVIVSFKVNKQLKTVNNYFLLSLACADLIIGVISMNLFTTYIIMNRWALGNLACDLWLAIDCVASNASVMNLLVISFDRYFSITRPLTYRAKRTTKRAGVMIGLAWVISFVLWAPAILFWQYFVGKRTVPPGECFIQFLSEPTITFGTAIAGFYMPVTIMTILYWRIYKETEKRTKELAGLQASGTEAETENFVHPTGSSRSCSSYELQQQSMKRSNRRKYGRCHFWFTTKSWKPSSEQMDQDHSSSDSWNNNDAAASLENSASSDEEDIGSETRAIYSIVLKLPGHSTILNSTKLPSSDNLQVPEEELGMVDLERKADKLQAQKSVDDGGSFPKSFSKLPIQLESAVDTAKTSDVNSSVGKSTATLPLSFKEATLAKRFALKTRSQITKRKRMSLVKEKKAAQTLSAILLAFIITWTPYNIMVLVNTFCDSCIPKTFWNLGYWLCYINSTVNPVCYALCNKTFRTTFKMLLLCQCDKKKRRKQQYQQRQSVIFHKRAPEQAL
T1 sequence (P08183 whole entry): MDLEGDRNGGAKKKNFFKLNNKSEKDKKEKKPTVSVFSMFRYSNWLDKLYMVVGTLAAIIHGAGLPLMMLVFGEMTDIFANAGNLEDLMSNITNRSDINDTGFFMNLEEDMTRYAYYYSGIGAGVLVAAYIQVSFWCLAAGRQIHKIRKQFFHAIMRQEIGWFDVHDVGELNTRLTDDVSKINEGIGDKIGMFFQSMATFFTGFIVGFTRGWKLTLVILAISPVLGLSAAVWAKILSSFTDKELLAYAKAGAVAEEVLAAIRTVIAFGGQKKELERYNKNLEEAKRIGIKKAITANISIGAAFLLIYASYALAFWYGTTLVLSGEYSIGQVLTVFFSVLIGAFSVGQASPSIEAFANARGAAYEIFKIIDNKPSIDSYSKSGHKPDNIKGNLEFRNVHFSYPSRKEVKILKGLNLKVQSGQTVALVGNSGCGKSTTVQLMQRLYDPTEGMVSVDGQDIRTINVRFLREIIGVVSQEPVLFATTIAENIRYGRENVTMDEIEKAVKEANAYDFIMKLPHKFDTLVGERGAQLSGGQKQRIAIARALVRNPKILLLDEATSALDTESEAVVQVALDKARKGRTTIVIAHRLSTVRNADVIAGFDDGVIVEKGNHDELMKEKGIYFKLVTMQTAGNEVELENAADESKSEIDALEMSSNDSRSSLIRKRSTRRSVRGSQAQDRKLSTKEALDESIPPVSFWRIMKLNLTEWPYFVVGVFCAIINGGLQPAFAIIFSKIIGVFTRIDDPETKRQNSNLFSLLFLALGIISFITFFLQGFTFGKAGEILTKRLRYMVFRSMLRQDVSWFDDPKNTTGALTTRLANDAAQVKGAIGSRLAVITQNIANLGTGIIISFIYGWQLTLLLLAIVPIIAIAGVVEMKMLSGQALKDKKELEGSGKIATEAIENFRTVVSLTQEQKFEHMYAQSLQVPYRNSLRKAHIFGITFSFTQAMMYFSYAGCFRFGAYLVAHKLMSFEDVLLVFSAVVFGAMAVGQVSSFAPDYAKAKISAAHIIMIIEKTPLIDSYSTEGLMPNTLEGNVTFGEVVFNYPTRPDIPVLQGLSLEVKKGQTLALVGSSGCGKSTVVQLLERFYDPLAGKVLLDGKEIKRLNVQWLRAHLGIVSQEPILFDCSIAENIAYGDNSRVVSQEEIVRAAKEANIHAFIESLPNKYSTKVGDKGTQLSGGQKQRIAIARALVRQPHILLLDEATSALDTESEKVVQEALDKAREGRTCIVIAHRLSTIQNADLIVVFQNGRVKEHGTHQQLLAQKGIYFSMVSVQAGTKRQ

With `CCN1CCN(C2=Nc3cc(Cl)ccc3Nc3c(F)cccc32)CC1` [JHU37160, 8-Chloro-11-(4-ethylpiperazin-1-yl)-4-fluoro-5H-dibenzo[b,e][1,4]diazepine], the “functional response in HEK-293 cells lacking DREADDs” value in series [1] was “no responses were observed; also recorded: did not produce any agonistic effect”. Also, in series [1] (HEK-293 cells), the “functional response, BRET (Go-alpha-Rluc8, beta1, gamma2-mVenus), no DREADD” value is “did not show any functional response”. Moreover, in series [1] (HEK-293 cells), the “functional response, GCaMP6f, no DREADD” value is on record as “did not show any functional response”. Also, the figures for the P-gp substrate result in series [2] and in series [2] (listed as J60) were “Neither JHU37152 nor JHU37160 were P-gp substrates” and “none of these compounds is a substrate for P-gp”, respectively. The locomotor activity entry was “selectively inhibiting locomotor activity” in series [3]; “without any significant locomotor effects” in series [4] (0.01 to 1 mg kg-1); “selectively inhibiting locomotor activity” in series [5] (D1-hM4Di mice, 0.01 to 1 mg kg-1). The “Locomotor activity, individual animals (Figure 3 Panel A)” value was 15.4443 and 132.603 and 147.829 and 129.309 and 75.7603 and 45.5126 and 63.7894 and 145.958 and 96.1391 and 10.074 and 65.3531 and 48.0503 and 10.0356 and 25.3389 and 152.354 and 157.609 and 175.04 in series [4] (dose 0.01); 28.3765 and 136.794 and 39.0145 and 128.13 and 27.5178 and 138.037 and 95.0881 and 162.364 and 107.636 and 24.3135 and 117.274 and 117.261 and 37.3098 and 136.435 and 99.1126 and 117.312 and 123.413 in series [4] (dose 0.1); 10.497 and 121.35 and 79.3619 and 104.303 and 59.97 and 24.8262 and 41.2959 and 159.16 and 61.4696 and 5.601 and 141.242 and 63.7125 and 17.4822 and 64.5071 and 75.0041 and 144.933 and 145.945 in series [4] (dose 1). The “Locomotor activity, individual animals (Figure 3 Panel C)” value in series [5] (dose 0.01) is 87.297 and 55.7522 and 80.3935 and 127.49 and 164.341 and 150.985 and 118.596 and 28.6623 and 109.457 and 25.9025 and 156.84; in series [5] (dose 0.1), 22.2583 and 26.4102 and 36.6386 and 50.3064 and 38.3173 and 43.9761 and 103.495 and 48.2345 and 24.5922 and 6.944 and 42.5594; in series [5] (dose 1) it was 71.4509 and 37.5721 and 8.672 and 75.5783 and 18.1309 and 89.8357 and 75.9222 and 7.305 and 23.6013 and 9.934 and 15.3384. Moreover, the “occupancy of striatal DREADDs” value in series [6] was 15–20%. In series [7], this molecule had a Ki of 3.6 nM. In addition, in series [7], the “improved affinity compared to C21” value is ~ 25 fold. Also, the “Locomotor activity, individual animals (Figure 3 Panel G)” value was 279.417 and 1024.06 and 48.7042 and 167.624 and 1237.61 and 111.992 and 663.301 in series [8] (dose 0.01); 1035.55 and 900.553 and 68.6081 and 759.611 and 1367.43 and 667.9 and 184.82 in series [8] (dose 0.1). Moreover, the hM3Dq-stimulated locomotion entry in series [8] (TH-hM3Dq rats, 0.01-0.3 mg kg-1) is “robust, selective increases in hM3Dq-stimulated locomotion”.
